Assay results published in EPA's ToxRefDB 2.

Assays:
dog [1] = details: Subchronic oral toxicity in nonrodent, beagle, Capsule, dose end: 90 day, group: systemic
mouse [2] = details: Subchronic oral toxicity in rodents, cd1, Feed, dose end: 90 day, group: systemic
dog [3] = details: Chronic toxicity, beagle, Oral, Capsule, dose end: 52 week, group: systemic
rat [4] = details: Subchronic oral toxicity in rodents, fischer, [Not Specified], dose end: 90 day, group: systemic
rabbit [5] = details: Prenatal developmental toxicity study, new zealand white, Oral, Gavage/Intubation, dose end: 18 GD
mouse [6] = details: Carcinogenicity, cd1, Oral, Feed, dose end: 80 week, group: systemic
rat [7] = details: Combined chronic toxicity/carcinogenicity, fischer, Oral, Feed, dose end: 104 week, group: systemic
rat [8] = details: Prenatal developmental toxicity study, sprague dawley, Oral, Gavage/Intubation, dose end: 17 GD
dog [9] = details: Chronic toxicity, beagle, Oral, Gavage/Intubation, dose end: 12 month, group: systemic
mouse [10] = details: Subchronic oral toxicity in rodents, cd1, Feed, dose end: 90 day, group: systemic, systemic / in life observation / body weight / body weight gain + systemic / in life observation / food consumption / food consumption + …
rabbit [11] = details: Prenatal developmental toxicity study, new zealand white, Oral, Gavage/Intubation, dose end: 19 GD
rat [12] = details: Combined chronic toxicity/carcinogenicity, sprague dawley, Oral, Feed, dose end: 104 week, group: systemic
rat [13] = details: Multigenerational reproductive toxicity study, sprague dawley, Oral, Feed, dose end: 2 generation
dog [14] = details: Subchronic oral toxicity in nonrodent, beagle, Gavage/Intubation, dose end: 90 day, group: systemic, systemic / in life observation / clinical signs / defecation (diarrhea) + systemic / in life observation / clinical signs / motor activity…
rat [15] = details: Subchronic oral toxicity in rodents, sprague dawley, Feed, dose end: 90 day, group: systemic
mouse [16] = details: Carcinogenicity, cd1, Oral, Feed, dose end: 80 week, group: systemic; remark: listed apart in the source
rat [17] = details: Prenatal developmental toxicity study, sprague dawley, Oral, Gavage/Intubation, dose end: 15 GD
[18] = systemic / in life observation / body weight / body weight gain + systemic / in life observation / food consumption / food efficiency
[19] = systemic / in life observation / body weight / body weight gain + systemic / in life observation / food consumption / food efficiency + …
[20] = systemic / clinical chemistry / albumin / albumin + systemic / hematology / eosinophils / eosinophils + systemic / hematology / neutrophils…
[21] = systemic / hematology / eosinophils / eosinophils + systemic / hematology / neutrophils / neutrophils + systemic / organ weight / liver / …
[22] = systemic / pathology gross / gallbladder / discolored + systemic / pathology microscopic / liver / hemosiderin laden macrophages
[23] = systemic / hematology / blood clotting / blood clotting - activated partial thromboplastin time + systemic / hematology / blood clotting / …
[24] = group: developmental, developmental / developmental malformation / bone / full supernumerary
[25] = group: maternal, reproductive / reproductive performance / resorptions / resorptions + systemic / in life observation / body weight / body weight gain + …
[26] = systemic / clinical chemistry / alanine aminotransferase (alt/sgpt) / alanine aminotransferase (alt/sgpt) + systemic / clinical chemistry / …
[27] = systemic / urinalysis / appearance and color / appearance and color + systemic / pathology microscopic / pancreas / proliferation
[28] = group: developmental, developmental / developmental malformation / bone / misshapen + developmental / developmental malformation / bone / supernumerary + …
[29] = group: maternal, systemic / in life observation / clinical signs / general pallor + systemic / in life observation / clinical signs / piloerection + systemic…
[30] = systemic / hematology / blood clotting / blood clotting - thromboplastin time + systemic / in life observation / body weight / body weight …
[31] = group: developmental, developmental / developmental malformation / bone / full supernumerary + developmental / developmental malformation / bone / incomplete …
[32] = group: maternal, systemic / in life observation / body weight / body weight + systemic / in life observation / body weight / body weight gain + systemic / in…
[33] = systemic / pathology microscopic / thyroid gland / adenoma + systemic / clinical chemistry / cholesterol / cholesterol + systemic / clinical…
[34] = group: offspring, systemic / in life observation / body weight / offspring (pup) weight + systemic / in life observation / body weight / offspring (pup) …
[35] = group: parental, systemic / in life observation / body weight / body weight
[36] = systemic / in life observation / body weight / body weight + systemic / in life observation / body weight / body weight gain + systemic / in…
[37] = systemic / in life observation / body weight / body weight gain + systemic / organ weight / liver / relative to body weight
[38] = systemic / pathology gross / urinary bladder / distended
[39] = systemic / pathology gross / urinary bladder / distended + systemic / hematology / lymphocyte / lymphocyte + systemic / hematology / …
[40] = group: developmental, systemic / in life observation / body weight / fetal weight + systemic / in life observation / body weight / litter weight

## CCCCCCCCCCCCC1=C(OC(C)=O)C(=O)c2ccccc2C1=O [Acequinocyl]
Dog [1]; [18]
  LOAEL: 40 mg/kg/day
  NOAEL: < 40 mg/kg/day
Dog [1]; [19]
  LEL: 40 mg/kg/day
  NEL: < 40 mg/kg/day
Mouse [2]; [20]
  LOAEL: 81 mg/kg/day
  NOAEL: 16 mg/kg/day
Mouse [2]; [21]
  LEL: 16 mg/kg/day
  NEL: < 16 mg/kg/day
Dog [3]; systemic / hematology / platelet / platelet + systemic / hematology / reticulocyte / reticulocyte
  LOAEL: 20 mg/kg/day
Dog [3]; systemic / hematology / platelet / platelet + systemic / hematology / reticulocyte / reticulocyte + systemic / clinical chemistry / albumin…
  NOAEL: 5 mg/kg/day
Dog [3]; [22]
  LEL: 5 mg/kg/day
  NEL: < 5 mg/kg/day
Rat [4]; systemic / clinical chemistry / gamma glutamyl transpeptides (gtp) / gamma glutamyl transpeptides (gtp) + systemic / urinalysis / appearance…
  LEL: 30.4 mg/kg/day
Rat [4]; [23]
  LOAEL: 120 mg/kg/day
  NEL: 7.6 mg/kg/day
  NOAEL: 30.4 mg/kg/day
Rabbit [5]; [24]
  LEL: 120 mg/kg/day
  LOAEL: 120 mg/kg/day
  NEL: 60 mg/kg/day
  NOAEL: 60 mg/kg/day
Rabbit [5]; [25]
  LEL: 120 mg/kg/day
  LOAEL: 120 mg/kg/day
  NEL: 60 mg/kg/day
  NOAEL: 60 mg/kg/day
Mouse [6]; [26]
  LEL: 2.7 mg/kg/day
  NEL: < 2.7 mg/kg/day
  NOAEL: 7 mg/kg/day
Mouse [6]; systemic / pathology microscopic / liver / fatty change + systemic / pathology microscopic / liver / vacuolization
  LOAEL: 20.3 mg/kg/day
Rat [7]; systemic / pathology gross / eye / enlarged
  LOAEL: 9.02 mg/kg/day
Rat [7]; systemic / pathology gross / eye / enlarged + systemic / in life observation / body weight / body weight + systemic / in life observation / …
  NOAEL: 2.25 mg/kg/day
Rat [7]; [27]
  LEL: 2.92 mg/kg/day
  NEL: < 2.92 mg/kg/day
Rat [8]; [28]
  LEL: 750 mg/kg/day
  LOAEL: 750 mg/kg/day
  NEL: 500 mg/kg/day
  NOAEL: 500 mg/kg/day
Rat [8]; [29]
  LEL: 500 mg/kg/day
  LOAEL: 500 mg/kg/day
  NEL: 150 mg/kg/day
  NOAEL: 150 mg/kg/day

## Cc1cc(C)nc(Nc2ccccc2)n1 [Pyrimethanil]
Dog [9]; systemic / hematology / blood clotting / blood clotting - thromboplastin time + systemic / hematology / neutrophils / neutrophils + systemic…
  NEL: 2 mg/kg/day
Dog [9]; [30]
  LOAEL: 250 mg/kg/day
  NOAEL: 30 mg/kg/day
Dog [9]; systemic / in life observation / clinical signs / vomitting
  LEL: 30 mg/kg/day
Mouse [10]
  LEL: 1860 mg/kg/day
  LOAEL: 1860 mg/kg/day
  NEL: 139 mg/kg/day
  NOAEL: 139 mg/kg/day
Rabbit [11]; [31]
  LEL: 300 mg/kg/day
  LOAEL: 300 mg/kg/day
  NEL: 45 mg/kg/day
  NOAEL: 45 mg/kg/day
Rabbit [11]; [32]
  LOAEL: 300 mg/kg/day
  NEL: 7 mg/kg/day
  NOAEL: 45 mg/kg/day
Rabbit [11]; group: maternal, systemic / in life observation / clinical signs / defecation
  LEL: 45 mg/kg/day
Rat [12]; systemic / clinical chemistry / gamma glutamyl transferase (ggt) / gamma glutamyl transferase (ggt) + systemic / organ weight / liver / …
  LEL: 17 mg/kg/day
Rat [12]; [33]
  LOAEL: 221 mg/kg/day
  NEL: 1.3 mg/kg/day
  NOAEL: 17 mg/kg/day
Rat [13]; group: offspring, systemic / in life observation / body weight / offspring (pup) weight
  LOAEL: 294 mg/kg/day
Rat [13]; [34]
  LEL: 294 mg/kg/day
  NEL: 23.1 mg/kg/day
  NOAEL: 23.1 mg/kg/day
Rat [13]; [35]
  LEL: 1.9 mg/kg/day
  NEL: < 1.9 mg/kg/day
Rat [13]; group: parental, systemic / in life observation / body weight / body weight + systemic / in life observation / body weight / body weight gain
  LOAEL: 294 mg/kg/day
Rat [13]; group: parental, systemic / in life observation / body weight / body weight + systemic / in life observation / body weight / body weight gain + systemic / in…
  NOAEL: 23.1 mg/kg/day
Dog [14]
  LEL: 800 mg/kg/day
  LOAEL: 800 mg/kg/day
  NEL: 80 mg/kg/day
  NOAEL: 80 mg/kg/day
Rat [15]; [36]
  LOAEL: 529 mg/kg/day
  NOAEL: 54.5 mg/kg/day
Rat [15]; [37]
  LEL: 6.8 mg/kg/day
  NEL: < 6.8 mg/kg/day
Mouse [16]; [38]
  LEL: 2 mg/kg/day
  NEL: < 2 mg/kg/day
Mouse [16]; [39]
  LOAEL: > 211 mg/kg/day
  NOAEL: ≥ 211 mg/kg/day
Rat [17]; [40]
  LEL: 1000 mg/kg/day
  LOAEL: 1000 mg/kg/day
  NEL: 85 mg/kg/day
  NOAEL: 85 mg/kg/day
Rat [17]; group: maternal, systemic / in life observation / body weight / body weight + systemic / in life observation / body weight / body weight gain
  LOAEL: 1000 mg/kg/day
Rat [17]; [32]
  LEL: 1000 mg/kg/day
  NEL: 85 mg/kg/day
  NOAEL: 85 mg/kg/day
